In US6564152B2, “Pharmacophore models for, methods of screening for, and identification of the cytochrome P-450 inhibitory potency of neurokinin-1 receptor antagonists” (Pfizer Inc, priority 2000, dated 2003):
pIC50: −log10 of the molar value. Read-outs that look alike come from different tables or passages of the source. Values belong to the molecule of their own block, whether it stands above or below them.

Biological target: recombinant CYP2D6 (Homo sapiens, UniProt P10635)
Experiment: Bufuralol 1'-hydroxylase assay (CYP2D6) IC50 determination
[1] = CYP2D6 IC50, recombinant CYP2D6 0.1 mg/ml, bufuralol 3.4 μM, 37° C., pH 7.4, Table I
[2] = IC50 Observed, test set of 8 compounds, in vitro values as measured in Example 1, Table II

Sequence of recombinant CYP2D6 (P10635 whole entry): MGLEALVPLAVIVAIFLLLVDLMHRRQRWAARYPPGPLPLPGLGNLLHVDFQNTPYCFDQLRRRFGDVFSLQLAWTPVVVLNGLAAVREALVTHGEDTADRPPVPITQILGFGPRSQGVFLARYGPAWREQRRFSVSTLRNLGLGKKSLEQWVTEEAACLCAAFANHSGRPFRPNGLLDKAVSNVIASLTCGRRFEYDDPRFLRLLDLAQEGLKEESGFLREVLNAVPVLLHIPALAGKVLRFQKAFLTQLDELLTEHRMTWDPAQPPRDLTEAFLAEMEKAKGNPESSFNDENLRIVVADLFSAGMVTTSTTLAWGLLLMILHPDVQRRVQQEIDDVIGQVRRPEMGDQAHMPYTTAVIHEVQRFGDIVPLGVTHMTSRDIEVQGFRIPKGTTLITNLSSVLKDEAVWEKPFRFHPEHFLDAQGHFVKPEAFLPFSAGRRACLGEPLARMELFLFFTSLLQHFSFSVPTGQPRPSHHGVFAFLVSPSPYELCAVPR
Method: Using a bufuralol-hydroxylation as a marker for CYP2D6 catalytic activity, the inhibitory effect of various NK-1 antagonists were assessed in vitro. The inhibitor compounds of Table I were assayed for CYP2D6 activity by the following procedure.
Two separate plates were prepared for the substrate and for dilutions of inhibitor. The contents of the two plates were combined in a 1:1 ratio to make a master plate of substrate and inhibitor solutions (S/I plate). The remaining assay ingredients, a combination of CYP2D6 (0.1 mg/ml, 0.12 pmol/ml, Panvera, Madison Wis.), NADPH (1.2 mM) and buffer (100 mM sodium phosphate, pH 7.4), are prepared on ice and transferred to a polyvinyl reaction plate (RXN plate). […] The RXN plate is pre-warmed to 37° C. using a MJ Research Model PTC-100 automated thermal controller, and the reaction is initiated by addition of an aliquot from the S/I plate. The reaction is allowed to proceed at 37° C. before being terminated using 70% perchloric acid (50 μl). HPLC analysis is preceded by filtration of (150μl) using a Millipore multiscreen-MAHA mixed cellulose esters, triton free, non-sterile plate (Millipore Co., Bedford, Mass.).
The reactions were then terminated as described above and Multiscreen plates were then used to filter the samples by slowly drawing them through the filter plate by a weak vacuum and collecting them in a polypropylene 96-well plate. The plate was mixed by drawing up and expelling well contents twice with the Soken pipettor. A 20 μl volume of each sample was injected for HPLC analysis every 2.5 minutes. When required, concentrations of the inhibitor were adjusted in a repeat experiment to cover concentration ranges above and below the reported IC50 value.
The mobile phase consisted of acetonitrile and water 20/80 v/v containing triethylamine (1 ml/liter) and phosphoric acid (600 l/liter) at a flow rate of 0.5 ml/min (analytical side) and 1.8 ml/min (wash side) using a column switching format. HPLC analysis was performed with two alternating HPLC columns (column A and column B) attached to a Valco E36 valve. Between 0 and 5.2 minutes of the run time, column A analyses metabolite peak of sample #1. […] During the wash cycle, the flow to column A is increased to 1.8 ml/min. […] A Phenomex primesphere C1 8-MC, 5 μm, 30×2 mm column (Phenomenex, Torrance, Calif.) was used. The retention time of the 1′-hydroxybufuralol (carbinol) metabolite was 1.0 minute. The peak area of the carbinol metabolite was determined in the absence of inhibitor and compared to that measured in the presence of inhibitor. The percent of control values versus inhibitor concentration were fitted to a Hill equation using non-linear curve fitting methods, namely, Deltagraph (DeltaPoint, Inc., Monterey, Calif.).

- pIC50 [1]: 7.80
- pIC50 [2]: 7.80
SMILES: COc1ccccc1CN[C@@H]1CCCC[C@@H]1C(c1ccccc1)c1ccccc1 [II]

- pIC50 [1]: 6.89
SMILES: COc1ccccc1CN[C@@H]1[C@H]2CCC[C@H]2N[C@@H]1c1ccccc1 [IX]

- pIC50 [1]: 7.66
SMILES: COc1ccccc1CN[C@@H]1C2CC3CCCC(C2)N3[C@@H]1C(c1ccccc1)c1ccccc1 [VIII]

- pIC50 [1]: 7.19
SMILES: Clc1ccccc1CN[C@@H]1C2CC3CCC(C2)N3[C@@H]1C(c1ccccc1)c1ccccc1 [VII]

- pIC50 [1]: 7.89
- pIC50 [2]: 7.89
SMILES: c1ccc(CN[C@@H]2C3CC4CCC(C3)N4[C@@H]2C(c2ccccc2)c2ccccc2)cc1 [VI]

- pIC50 [1]: 7.39
SMILES: COc1ccccc1CN[C@@H]1C2CC3CCC(C2)N3[C@@H]1C(c1ccccc1)c1ccccc1 [V]

- pIC50 [1]: 7.89
SMILES: COc1ccccc1CC(=N)N1C[C@H]2C(=O)CCC(c3ccccc3)(c3ccccc3)[C@H]2C1 [XIII]

- pIC50 [1]: 8.17
SMILES: COc1ccccc1CN[C@@H]1C2C3CCCC2CN(C3)[C@@H]1C(c1ccccc1)c1ccccc1 [XII]

- pIC50 [1]: 7.42
- pIC50 [2]: 7.42
SMILES: CC(C)Oc1ccccc1CN[C@H]1CCCN[C@H]1c1ccccc1 [XIV]

- pIC50 [1]: 7.80
- pIC50 [2]: 7.80
SMILES: Clc1ccccc1CN[C@@H]1C2C3CCCC2CN(C3)[C@@H]1C(c1ccccc1)c1ccccc1 [XI]

More lines, now with the values behind:

SMILES: O=c1[nH]nc(CN2CCO[C@H](OCc3cc(C(F)(F)F)cc(C(F)(F)F)c3)[C@@H]2c2ccccc2)[nH]1 [Compound XXIV]
- pIC50 [1]: 5.15
- pIC50 [2]: 5.15

SMILES: C[C@@H](O[C@H]1OCCN(Cc2n[nH]c(=O)[nH]2)[C@H]1c1ccc(F)cc1)c1cc(C(F)(F)F)cc(C(F)(F)F)c1 [Compound XXI]
- pIC50 [1]: 4.74

SMILES: COc1ccccc1[C@H]1CC[C@]2(CCCN[C@@H]2c2ccccc2)NC1 [Compound XX]
- pIC50 [1]: 7.68

SMILES: COc1ccc(OC)c(CN[C@H]2CCCN[C@H]2c2ccccc2)c1 [Compound X]
- pIC50 [1]: 6.43

SMILES: COc1ccccc1CN[C@@H]1C2CCN(CC2)[C@@H]1C(c1ccccc1)c1ccccc1 [III]
- pIC50 [1]: 6.77

SMILES: COc1ccccc1CN[C@H]1CCCN[C@H]1c1ccccc1 [IV]
- pIC50 [1]: 6.70
- pIC50 [2]: 7.68

SMILES: Clc1ccccc1CN[C@@H]1C2CCN(CC2)[C@@H]1C(c1ccccc1)c1ccccc1 [I]
- pIC50: 7.23

SMILES: CC(C)Oc1ccc(OC(F)(F)F)cc1CN[C@H]1CCCN[C@H]1c1ccccc1 [XIX]
- pIC50: 7.33

SMILES: CCOc1ccc(OC(F)(F)F)cc1CN[C@H]1CCCN[C@H]1c1ccccc1 [XVIII]
- pIC50 [1]: 7.35

SMILES: FC(F)(F)Oc1ccccc1CN[C@H]1CCCN[C@H]1c1ccccc1 [XVII]
- pIC50 [1]: 7.40

SMILES: FC(F)Oc1ccccc1CN[C@H]1CCCN[C@H]1c1ccccc1 [XVI]
- pIC50 [1]: 7.13

SMILES: FC(F)(F)c1cc(CO[C@H]2OCCN(Cc3nnc[nH]3)[C@H]2c2ccccc2)cc(C(F)(F)F)c1 [XXIII]
- pIC50 [1]: 5.06

SMILES: COc1ccc(-n2nnnc2C(F)(F)F)cc1CN[C@H]1CCCN[C@H]1c1ccccc1 [XXVI]
- pIC50 [1]: 6.28

SMILES: COc1ccc(-n2cnnn2)cc1CN[C@H]1CCCN[C@H]1c1ccccc1 [XXV]
- pIC50 [1]: 6.49
- pIC50 [2]: 6.49
